One assay addresses T1, RANKL (Homo sapiens, UniProt O14788).
T1 sequence (O14788 143-317): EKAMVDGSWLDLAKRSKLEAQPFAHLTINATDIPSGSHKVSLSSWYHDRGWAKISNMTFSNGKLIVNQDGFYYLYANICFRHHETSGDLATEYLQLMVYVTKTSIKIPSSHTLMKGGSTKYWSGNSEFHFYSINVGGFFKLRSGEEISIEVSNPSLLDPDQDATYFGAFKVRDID
The assay can be described thus: Fluorescence-based binding affinity assay, RANKL. As to conditions: for 'n' value from Scatchard plot (ligand binding sites per protein molecule): RANKL, binding assay raw data. Here is the method:
(§1) For use in the binding assays, recombinant TNF and RANKL were expressed and purified as previously described.[84–86] Fluorescence intensity was measure with a Synergy H1 Multi-Mode Reader (BioTek) in 96-well microplates (black) at 25°C. […] During preparation of the solutions the buffer was firstly added to all wells followed by the ligand solution and finally the protein was added. All solutions were mixed by pipetting and equilibrated for 1h at 25°C before measurement. […] Experiments were performed for TNF in 10 mM citrate-phosphate (pH 6.5) and for RANKL in 25 mM Tris–HCl buffer, 100 mM NaCl (pH 7.5); both buffers were supplemented with PEG3350 at the concentrations indicated in the respective figures. Kd values were calculated as mean ± SEM from three independent experiments.
(§2) Differences in fluorescence intensity between the protein/ligand complex and free protein (or free ligand) were analysed as previously described in [Papaneophytou et al. (2013) ACS Med Chem Lett. 4: 137-141] (Eq. S6) in order to determine the dissociation constant (Kd) of the various protein-ligand systems.
(§3) In Eq. (S6) Fobs is the observed fluorescence intensity; FBG is the fluorescence background signal; MFLF [picture] and PF are the molar fluorescence and concentration of free protein, respectively; FR is the fluorescence ratio of bound protein (or bound ligand in the case of a fluorescence ligand); LT and PT are the total concentrations of ligand and protein, respectively. A detailed analysis of the development of the fluorescence ligand-binding assay is given in [Papaneophytou et al. (2013) ACS Med Chem Lett. 4: 137-141].

For the next assay, the target named is TNF (Homo sapiens, UniProt P01375). The assay can be described thus: Fluorescence-based binding affinity assay, TNF. The following applies: for 'n' value from Scatchard plot (ligand binding sites per protein molecule): TNF, binding assay raw data. More on the design: made in house. Here is the method: as §1, §2, §3
Chain of TNF (P01375 77-233 limits assumed): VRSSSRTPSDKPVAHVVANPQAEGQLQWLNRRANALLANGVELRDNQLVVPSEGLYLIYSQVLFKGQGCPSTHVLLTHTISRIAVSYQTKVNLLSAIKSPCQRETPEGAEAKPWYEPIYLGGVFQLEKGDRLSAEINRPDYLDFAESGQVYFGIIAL
A further assay addresses T2, TNF/TNFR1 interaction (Homo sapiens, UniProt P01375).
T2 construct: purchased PeproTech
As to the kind of experiment: TNF/TNFR1 ELISA assay. Type of assay: binding. How it is done: 96-well plates were coated with 0.1 mg/mL recombinant soluble human TNFR1 (PeproTech) in PBS overnight at 4°C. […] After two consecutive rounds of washes, plates were incubated with a rabbit anti-human-TNF antibody (provided by Prof. W. A. Buurman, University of Maastricht) and an anti-rabbit secondary antibody conjugated with HRP (Vector Laboratories). Both incubations were for 1 h and were performed at room temperature. Following a last round of washes, the signal was finally developed using the TMB Substrate Kit (ThermoFisher Scientific) and was measured spectrophotometrically at 450 nm. Experiments were performed in triplicate. Having established that the selected compounds obstruct TNF function, and since TNF exerts its functions mainly through interacting with the TNFR1 receptor, a further test was performed to evaluate the effect of inhibition on this protein-receptor interaction.

Where [1] appears, read: RANKL 0.5 μM, PEG3350 2.5%, 25 mM Tri-HCl, 100 mM NaCl pH 7.5, read-out: Binding affinity (Kd), RANKL.
[2] abbreviates: RANKL 0.5 μM, PEG3350 5%, 25 mM Tri-HCl, 100 mM NaCl pH 7.5, read-out: Binding affinity (Kd), RANKL.
[3] abbreviates: RANKL 1.5 μM, PEG3350 5%, 25 mM Tri-HCl, 100 mM NaCl pH 7.5, read-out: Binding affinity (Kd), RANKL.
Where [4] appears, read: RANKL 2.5 μM, PEG3350 5%, 25 mM Tri-HCl, 100 mM NaCl pH 7.5, read-out: Binding affinity (Kd), RANKL.
Setting [5] is: fluorescence assay, 25°C, 25 mM Tris-HCl, 100 mM NaCl, pH 7.5, 5% PEG3350, read-out: Kd (RANKL complexes).
The mark [6] stands for this setting: TNF 0.75 μM, PEG3350 2.5%, 10 mM Citrate-phosphate buffer pH 6.5, read-out: Binding affinity (Kd), TNF.
[7] abbreviates: TNF 0.75 μM, PEG3350 5%, 10 mM Citrate-phosphate buffer pH 6.5, read-out: Binding affinity (Kd), TNF.
The mark [8] stands for this setting: TNF 1.5 μM, PEG3350 5%, 10 mM Citrate-phosphate buffer pH 6.5, read-out: Binding affinity (Kd), TNF.
Where [9] appears, read: TNF 2.5 μM, PEG3350 5%, 10 mM Citrate-phosphate buffer pH 6.5, read-out: Binding affinity (Kd), TNF.
Setting [10] is: fluorescence assay, 25°C, citrate-phosphate buffer, 5% PEG3350, read-out: Kd (TNF complexes).

Like-named read-outs stand apart in the source and are kept apart here.

T2 sequence (P01375 77-233 limits assumed): as above

Regarding `O=C(NNC(=NS(=O)(=O)c1ccc(-n2nc(C(F)(F)F)cc2-c2cccs2)cc1)N1CCCC1)c1ccc(Cl)cc1` [Compound T8, N-[(4-chlorobenzoyl)amino]-N'-[4-[5-thiophen-2-yl-3-(trifluoromethyl)pyrazol-1-yl]phenyl]sulfonylpyrrolidine-1-carboximidamide], the dissociation constant (Kd) on RANKL (setting [1]) was determined as 6.15 ± 0.22 µM; at RANKL (setting [2]) it was 6.32 ± 0.62 µM; on RANKL (setting [3]), 6.55 ± 0.84 µM; on RANKL (setting [4]) it was 6.05 ± 0.37 µM; on RANKL (setting [5]) it was 6.3 ± 0.6 µM; on TNF (setting [6]), 9.55 ± 0.81 µM. For the same compound, the Kd worked out at 8.78 ± 0.76 µM on TNF (setting [7]), 9.02 ± 0.88 µM at TNF (setting [8]), 9.17 ± 0.88 µM at TNF (setting [9]) and 8.8 ± 0.8 µM on TNF (setting [10]). Further, the “'n' value from Scatchard plot (ligand binding sites per protein molecule)” value at RANKL and at TNF was 1 throughout. At TNF/TNFR1 interaction, this compound registered an IC50 of 30 ± 2.3 µM.
With `COc1cc(OC(C)=O)c(-c2cc(OC(C)=O)c(OC)cc2OC(C)=O)cc1OC(C)=O` [Compound T23, [4-acetyloxy-2-(2,5-diacetyloxy-4-methoxyphenyl)-5-methoxyphenyl] acetate], the Kd at RANKL (RANKL 0.5 μM, PEG3350 0%, 25 mM Tri-HCl, 100 mM NaCl pH 7.5, read-out: Binding affinity (Kd), RANKL) was determined as 7.02 ± 0.63 µM; on RANKL (setting [1]), 7.44 ± 0.52 µM; on RANKL (setting [2]), 7.25 ± 0.44 µM; on RANKL (setting [3]), 7.62 ± 0.84 µM; on RANKL (setting [4]), 7.02 ± 0.33 µM; on RANKL (setting [5]), 7.3 ± 0.4 µM. Also, the Kd was found to be 2.53 ± 0.23 µM at TNF (TNF 0.75 μM, PEG3350 0%, 10 mM Citrate-phosphate buffer pH 6.5, read-out: Binding affinity (Kd), TNF); 3.02 ± 0.31 µM at TNF (setting [6]); 2.8 ± 0.19 µM at TNF (setting [7]); 2.63 ± 0.25 µM on TNF (setting [8]); 2.98 ± 0.47 µM on TNF (setting [9]); 2.8 ± 0.2 µM on TNF (setting [10]). Also, the “'n' value from Scatchard plot (ligand binding sites per protein molecule)” value on RANKL and on TNF was 1 in each case. In addition, on TNF/TNFR1 interaction, the IC50 was 3 ± 0.1 µM.

For the origin of these results see publication PMC5398486, “Cheminformatics-aided discovery of small-molecule Protein-Protein Interaction (PPI) dual inhibitors of Tumor Necrosis Factor (TNF) and Receptor Activator of NF-κB Ligand (RANKL)” (PLoS Computational Biology, 2017).
